From ChEMBL document CHEMBL3045278, “Anticonvulsant and sedative-hypnotic activity of some novel 3-[5-(4-substituted) phenyl-1,3,4-oxadiazole-2yl]-2-styrylquinazoline-4(3H)-ones” (Med Chem Res, 2010)
The source made the active and inactive calls. No cut-off for these calls is given here.

How the values were obtained:
Mus musculus [1] = test: Anticonvulsant activity in Mus musculus albino (mouse) assessed as protection against subcutaneous pentylenetetrazol-induced seizures at 300 mg/kg, ip measured at 4 hr; assay type: functional, organism-based; design: dose 300 mg/kg
Mus musculus [2] = test: Anticonvulsant activity in Mus musculus albino (mouse) assessed as protection against maximal electroshock-induced seizures at 300 mg/kg, ip measured at 0.5 hr; assay type: functional, organism-based; design: dose 300 mg/kg
Mus musculus [3] = test: Neurotoxicity in Mus musculus albino (mouse) assessed as minimal motor impairment at 300 mg/kg, ip measured at 4 hr; assay type: toxicity, organism-based; design: dose 300 mg/kg, route intraperitoneal; conditions: in vivo
Rattus norvegicus [4] = test: Antidepressant activity in Rattus norvegicus Wistar (rat) assessed as immobility time at 100 mg/kg, ip after 60 min by forced swim pool test relative to control; conditions: route intraperitoneal
Mus musculus [5] = test: Behavioral activity in Mus musculus albino (mouse) assessed as inhibition of locomotion at 100 mg/kg, ip after 1 hr by actophotometric analysis relative to control; assay type: functional; conditions: route intraperitoneal
Mus musculus [6] = species: Mus musculus; test: Sedative-hypnotic activity in Mus musculus albino (mouse) assessed as increase in phenobarbitone-induced sleeping time; assay type: functional, organism-based
Mus musculus [7] = test: Neurotoxicity in Mus musculus albino (mouse) assessed as minimal motor impairment at 300 mg/kg, ip measured at 0.5 hr; assay type: toxicity, organism-based; design: dose 300 mg/kg, route intraperitoneal; conditions: in vivo
Mus musculus [8] = test: Anticonvulsant activity in Mus musculus albino (mouse) assessed as protection against maximal electroshock-induced seizures at 300 mg/kg, ip measured at 4 hr; assay type: functional, organism-based; design: dose 300 mg/kg
Mus musculus [9] = test: Anticonvulsant activity in Mus musculus albino (mouse) assessed as protection against subcutaneous pentylenetetrazol-induced seizures at 300 mg/kg, ip measured at 0.5 hr; assay type: functional, organism-based; design: dose 300 mg/kg
Mus musculus [10] = test: Neurotoxicity in ip dosed Mus musculus albino (mouse) assessed as minimal motor impairment measured at 0.5 hr; assay type: toxicity, organism-based; conditions: in vivo
Mus musculus [11] = test: Neurotoxicity in ip dosed Mus musculus albino (mouse) assessed as minimal motor impairment measured at 4 hr; assay type: toxicity, organism-based; conditions: in vivo
Mus musculus [12] = test: Anticonvulsant activity in ip dosed Mus musculus albino (mouse) assessed as protection against maximal electroshock-induced seizures measured at 4 hr; assay type: functional; conditions: read-out: MED
Mus musculus [13] = test: Anticonvulsant activity in ip dosed Mus musculus albino (mouse) assessed as protection against subcutaneous pentylenetetrazol-induced seizures measured at 4 hr; assay type: functional; conditions: read-out: MED
Mus musculus [14] = test: Anticonvulsant activity in ip dosed Mus musculus albino (mouse) assessed as protection against subcutaneous pentylenetetrazol-induced seizures measured at 0.5 hr; assay type: functional; conditions: read-out: MED
Mus musculus [15] = test: Anticonvulsant activity in ip dosed Mus musculus albino (mouse) assessed as protection against maximal electroshock-induced seizures measured at 0.5 hr; assay type: functional; conditions: read-out: MED
Rattus norvegicus [16] = test: Antidepressant activity in Rattus norvegicus Wistar (rat) assessed as immobility time at 25 mg/kg, ip after 60 min by forced swim pool test relative to control; conditions: route intraperitoneal
Mus musculus [17] = test: Behavioral activity in Mus musculus albino (mouse) assessed as inhibition of locomotion at 25 mg/kg, ip after 1 hr by actophotometric analysis relative to control; assay type: functional; conditions: route intraperitoneal

| SMILES | Activity (Mus musculus [1]) | Activity (Mus musculus [2]) | Activity (Mus musculus [3]) | Time (Rattus norvegicus [4]) [s] | inhibition in vivo at 100 mg/kg (Mus musculus [5]) [%] | Activity (Mus musculus [6]) | Activity (Mus musculus [7]) | Activity (Mus musculus [8]) | Activity (Mus musculus [9]) | MTC (Mus musculus [10]) [mg/kg] | MTC (Mus musculus [11]) [mg/kg] | minimal effective dose (Mus musculus [12]) [mg/kg] | minimal effective dose (Mus musculus [13]) [mg/kg] | minimal effective dose (Mus musculus [14]) [mg/kg] | minimal effective dose (Mus musculus [15]) [mg/kg] | Time (Rattus norvegicus [16]) [s] | inhibition in vivo at 25 mg/kg (Mus musculus [17]) [%] |
| --- | --- | --- | --- | --- | --- | --- | --- | --- | --- | --- | --- | --- | --- | --- | --- | --- | --- |
| COc1ccc(-c2nnc(-n3c(/C=C/c4ccc(C)cc4)nc4ccccc4c3=O)o2)cc1 | inactive | inactive | Non-toxic | 182.82 | 42 | inactive | Non-toxic | inactive | inactive | – | – | – | – | – | – | – | – |
| Cc1ccc(/C=C/c2nc3ccccc3c(=O)n2-c2nnc(-c3ccccc3)o2)cc1 | inactive | inactive | Non-toxic | 160.05 | 47 | inactive | Non-toxic | inactive | inactive | – | – | – | – | – | – | – | – |
| NC(=O)N1c2ccccc2C=Cc2ccccc21 [CARBAMAZEPINE] | – | – | – | – | – | – | – | – | – | 100 | 300 | 100 | 300 | 100 | 30 | 240.3 | – |
| O=c1c2ccccc2nc(/C=C/c2ccc(Cl)cc2)n1-c1nnc(-c2ccc(Cl)cc2)o1 | inactive | inactive | Non-toxic | 100.12 | 53 | inactive | – | inactive | inactive | 100 | – | – | – | – | – | – | – |
| O=c1c2ccccc2nc(/C=C/c2ccc(Cl)cc2)n1-c1nnc(-c2ccccc2)o1 | inactive | inactive | Non-toxic | 151.11 | 51 | inactive | Non-toxic | inactive | inactive | – | – | – | – | – | – | – | – |
| CN(C)c1ccc(-c2nnc(-n3c(/C=C/c4ccc(Cl)cc4)nc4ccccc4c3=O)o2)cc1 | – | – | – | 121.21 | 49 | inactive | – | – | – | 100 | 100 | 100 | 300 | 300 | 100 | – | – |
| O=c1c2ccccc2nc(/C=C/c2ccccc2)n1-c1nnc(-c2ccc(Cl)cc2)o1 | inactive | inactive | Non-toxic | 217.93 | 38 | inactive | Non-toxic | inactive | inactive | – | – | – | – | – | – | – | – |
| COc1ccc(-c2nnc(-n3c(/C=C/c4ccc(Cl)cc4)nc4ccccc4c3=O)o2)cc1 | inactive | inactive | Non-toxic | 184.36 | 50 | inactive | Non-toxic | inactive | inactive | – | – | – | – | – | – | – | – |
| CCCC(CCC)C(=O)[O-].[Na+] [VALPROATE SODIUM] | inactive | inactive | Non-toxic | – | – | – | Non-toxic | inactive | – | – | – | – | – | 300 | – | – | – |
| Cc1ccc(/C=C/c2nc3ccccc3c(=O)n2-c2nnc(-c3ccc(C)cc3)o2)cc1 | inactive | inactive | Non-toxic | 163.21 | 40 | inactive | Non-toxic | inactive | inactive | – | – | – | – | – | – | – | – |
| COc1ccc(-c2nnc(-n3c(/C=C/c4ccccc4)nc4ccccc4c3=O)o2)cc1 | inactive | inactive | Non-toxic | 163.75 | 41 | inactive | – | inactive | inactive | 300 | – | – | – | – | – | – | – |
| O=C1NC(=O)C(c2ccccc2)(c2ccccc2)N1 [PHENYTOIN] | inactive | – | – | – | – | – | – | – | inactive | 100 | 100 | 30 | – | – | 30 | – | 70 |
| Cc1ccc(/C=C/c2nc3ccccc3c(=O)n2-c2nnc(-c3ccc(N(C)C)cc3)o2)cc1 | inactive | inactive | Non-toxic | 125.42 | 37 | inactive | – | inactive | inactive | 100 | – | – | – | – | – | – | – |
| Cc1ccc(-c2nnc(-n3c(/C=C/c4ccc(Cl)cc4)nc4ccccc4c3=O)o2)cc1 | inactive | inactive | Non-toxic | 150.76 | 56 | inactive | Non-toxic | inactive | inactive | – | – | – | – | – | – | – | – |
| O=c1c2ccccc2nc(/C=C/c2ccccc2)n1-c1nnc(-c2ccccc2)o1 | inactive | inactive | Non-toxic | 113.14 | 48 | inactive | Non-toxic | inactive | inactive | – | – | – | – | – | – | – | – |
| Cc1ccc(-c2nnc(-n3c(/C=C/c4ccccc4)nc4ccccc4c3=O)o2)cc1 | inactive | inactive | Non-toxic | 152.39 | 48 | inactive | Non-toxic | inactive | inactive | – | – | – | – | – | – | – | – |
| Cc1ccc(/C=C/c2nc3ccccc3c(=O)n2-c2nnc(-c3ccc(Cl)cc3)o2)cc1 | inactive | – | Non-toxic | 135.18 | 45 | inactive | Non-toxic | inactive | inactive | – | – | – | – | – | 300 | – | – |
| CN(C)c1ccc(-c2nnc(-n3c(/C=C/c4ccccc4)nc4ccccc4c3=O)o2)cc1 | inactive | inactive | Non-toxic | 50.23 | 30 | inactive | Non-toxic | inactive | inactive | – | – | – | – | – | – | – | – |
